Results from US20180303101A1, “METHOD OF IMPROVING GRASS QUALITY” (priority 2004, published 2018).

Test system: creeping bentgrass (variety Penncross) turf
Experiment: Bentgrass color rating after foliar spray (Example 4)
Format: in vivo
Conditions: 6 weeks after treatment; iprodione 4 oz/1000 sq. ft.; Pigment Green 7 6.8 or 13.6 g/1000 sq. ft. in combination, 13.6 g alone
Source text: Pigment Green 7 was suspended in water and applied as a foliar spray to creeping bentgrass (variety Penncross) turf with a pressurized sprayer at a spray volume of 1.37 gallons of water per 1000 sq. ft. (ca. 560 l/ha). Pigment Green 7 was applied at rates of 6.8, 13.9, and 20.4 grams per 1000 sq. ft. (0.73, 1.5, and 2.2 kg/ha, respectively). Each treatment was replicated 4 times. An untreated plot was included and was also replicated four times. The average color of the bentgrass was visually evaluated at 6 weeks after treatment. Color was evaluated on a qualitative scale from 1-9, with 9 being the highest quality and 1 the lowest quality.
The procedure of Example 2 was repeated using iprodione fungicide (in the form of 26 GT brand iprodione fungicide) at 4 oz/1000 sq. ft. (ca. 1.3 mL/m2), iprodione at 4 oz/1000 sq. ft. (ca. 1.3 mL/m2) plus Pigment Green 7 at 6.8 g/1000 sq. ft. (0.73 kg/ha), iprodione at 4 oz/1000 sq. ft. plus Pigment Green 7 at 13.6 g/1000 sq. ft. (1.5 kg/ha), and Pigment Green 7 at 13.6 g/1000 sq. ft. (1.5 kg/ha). At 6 weeks after treatment, the color ratings were as follows.

SMILES: CC(C)NC(=O)N1CC(=O)N(c2cc(Cl)cc(Cl)c2)C1=O [iprodione, 3-(3,5-dichlorophenyl)-N-(l-methylethyl)-2,4-dioxo-1-imidazolidinecarbox-amide, reference compound]
- Color rating versus untreated check: not significantly different than the untreated check
